The results in this text go back to patent US20250019350A1, “SYNTHESIS OF THE PROSTATE SPECIFIC MEMBRANE ANTIGEN (PSMA) RADIOLABELED INHIBITOR [18F]DCFPYL” (Progenics Pharmaceuticals, Inc, priority 2023, published 2025).

Structures are written as SMILES.

The series in a line: Retention/recovery of [19F]DCFPyL on the HLB solvent exchange cartridge as a function of pH (load, wash, product samples). The format is physicochemical. As for the experimental part: The goal of this study was to characterize the impact of pH on the retention of [^18F]DCFPyL on the HLB solvent exchange cartridge. […] The pH of one solution was adjusted to 2 and a second to 4 by adding 1N HCl. A third solution was used without adjusting its native pH of 7.2. Using a BD syringe, 10 mL of each solution was spiked with [^19F]DCFPyL (50 μg) by adding 0.5 mL of a 100 μg/mL stock solution. Each spiked solution was loaded onto a HLB cartridge at a rate of approximately 2 mL/min. […] The eluent from each HLB cartridge was individually collected and identified as the “wash solution.” Each HLB cartridge was then individually eluted with 1 mL of ethanol, the samples collected and are identified as the “product sample.” The load solution and wash solution samples were analyzed using a drug product chemical impurity assay after a 1 to 10 mL dilution with saline, while the ethanolic product samples were analyzed following a 0.5 to 10 dilution with saline.
The goal of this study was to characterize the impact of pH on the retention of ^18F-DCFPyL on the HLB solvent exchange cartridge. […] The pH of one solution was adjusted to 2 and a second to 4 by adding 1N HCl. A third solution was used without adjusting its native pH of 7.2. At this pH the solution will be mainly sodium ascorbate. Using a BD syringe, 10 mL of each solution was spiked with ^19F-DCFPyL (50 μg) by adding 0.5 mL of a 100 μg/mL stock solution. Each spiked solution was loaded onto an HLB cartridge at a rate of approximately 2 mL/min and the solution collected after the HLB column is identified as the load solution. […] Each HLB cartridge was then individually eluted with 1 mL of ethanol, the solution collected after the HLB column is identified as the product sample. The load solution and wash solution samples were analyzed using the drug product chemical impurity assay after a 1 to 10 mL dilution with saline, while the ethanolic product samples were analyzed following a 0.5 to 10 mL dilution with saline.

As to `O=C(O)CC[C@H](NC(=O)N[C@@H](CCCCNC(=O)c1ccc([18F])nc1)C(=O)O)C(=O)O` [Lot 18F-DCFPyL, 2-(3-{1-carboxy-5-[(6-[18F]fluoro-pyridine-3-carbonyl)-amino]-pentyl}ureido)-pentanedioic acid], the “retention of [18F]-DCFPyL by the HLB cartridge” value came to 98% (pH 2) and 81% (pH 4).
